The source made the active and inactive calls. The calls are words filed in the database; no cut-off is given here.
System: Sitophilus granarius
Assay: Antifeeding activity against Sitophilus granarius (granary weevil) adults in compound treated wheat wafer disk assessed as relative coefficient of deterrence by feeding deterrent activity test
Type: functional

Compared with `COc1ccc2c(c1)OC(C)(C)C1=C2OC(=O)C1`, `COc1cc2c(cc1OC)C1=C(CC(=O)O1)C(C)(C)O2` is lower in FDI: 94.4 for the first, 91.6 for the second.

Going from `COc1ccc2c(c1)OC(C)(C)C(CC(=O)O)=C2` to `COc1cc2c(cc1OC)OC(C)(C)C(CC(=O)O)=C2`, the FDI falls from 95.7 to 88.9.

System: Trogoderma granarium
Assay: Antifeeding activity against Trogoderma granarium (khapra beetle) larvaes in compound treated wheat wafer disk assessed as total coefficient of deterrence by feeding deterrent activity test
Type: functional

Compared with `COc1ccc2c(c1)OC(C)(C)C1=C2OC(=O)C1`, `COc1cc2c(cc1OC)C1=C(CC(=O)O1)C(C)(C)O2` is higher in FDI: 107.6 for the first, 116.2 for the second.

Compared with `COc1ccc2c(c1)OC(C)(C)C(CC(=O)O)=C2`, `COc1cc2c(cc1OC)OC(C)(C)C(CC(=O)O)=C2` is lower in FDI: 108 for the first, 97.4 for the second.

System: Leptinotarsa decemlineata
Assay: Antifeeding activity against Leptinotarsa decemlineata larvaes in compound treated wheat wafer disk assessed as relative coefficient of deterrence by feeding deterrent activity test
Type: functional

First: COc1ccc2c(c1)OC(C)(C)C1=C2OC(=O)C1
Second: COc1cc2c(cc1OC)C1=C(CC(=O)O1)C(C)(C)O2
The FDI of the first is lower: 55 for the first, 62.5 for the second.

First: COc1ccc2c(c1)OC(C)(C)C(CC(=O)O)=C2
Second: COc1cc2c(cc1OC)OC(C)(C)C(CC(=O)O)=C2
The FDI of the first is lower: 63.6 for the first, 79.1 for the second.

System: Trogoderma granarium
Assay: Antifeeding activity against Trogoderma granarium (khapra beetle) larvaes in compound treated wheat wafer disk assessed as relative coefficient of deterrence by feeding deterrent activity test
Type: functional

Going from `COc1ccc2c(c1)OC(C)(C)C1=C2OC(=O)C1` to `COc1cc2c(cc1OC)C1=C(CC(=O)O1)C(C)(C)O2`, the FDI rises from 73.1 to 85.

Going from `COc1ccc2c(c1)OC(C)(C)C(CC(=O)O)=C2` to `COc1cc2c(cc1OC)OC(C)(C)C(CC(=O)O)=C2`, the FDI falls from 86 to 85.5.

System: Trogoderma granarium
Assay: Antifeeding activity against Trogoderma granarium (khapra beetle ) larvaes in compound treated wheat wafer disk assessed as absolute coefficient of deterrence by feeding deterrent activity test
Type: functional

First: COc1ccc2c(c1)OC(C)(C)C1=C2OC(=O)C1
Second: COc1cc2c(cc1OC)C1=C(CC(=O)O1)C(C)(C)O2
The FDI of the first is higher: 34.5 for the first, 31.2 for the second.

Going from `COc1ccc2c(c1)OC(C)(C)C(CC(=O)O)=C2` to `COc1cc2c(cc1OC)OC(C)(C)C(CC(=O)O)=C2`, the FDI falls from 22 to 11.9.

System: Tribolium confusum
Assay: Antifeeding activity against Tribolium confusum (confused flour beetle) larvaes in compound treated wheat wafer disk assessed as relative coefficient of deterrence by feeding deterrent activity test
Type: functional

Going from `COc1ccc2c(c1)OC(C)(C)C1=C2OC(=O)C1` to `COc1cc2c(cc1OC)C1=C(CC(=O)O1)C(C)(C)O2`, the FDI rises from 60.3 to 90.7.

Compared with `COc1ccc2c(c1)OC(C)(C)C(CC(=O)O)=C2`, `COc1cc2c(cc1OC)OC(C)(C)C(CC(=O)O)=C2` is lower in FDI: 86.4 for the first, 73.1 for the second.

System: Sitophilus granarius
Assay: Antifeeding activity against Sitophilus granarius (granary weevil) adults in compound treated wheat wafer disk assessed as total coefficient of deterrence by feeding deterrent activity test
Type: functional

Going from `COc1ccc2c(c1)OC(C)(C)C1=C2OC(=O)C1` to `COc1cc2c(cc1OC)C1=C(CC(=O)O1)C(C)(C)O2`, the FDI falls from 114.1 to 105.8.

Going from `COc1ccc2c(c1)OC(C)(C)C(CC(=O)O)=C2` to `COc1cc2c(cc1OC)OC(C)(C)C(CC(=O)O)=C2`, the FDI rises from 97.5 to 103.9.

System: Tribolium confusum
Assay: Antifeeding activity against Tribolium confusum (confused flour beetle) larvaes in compound treated wheat wafer disk assessed as absolute coefficient of deterrence by feeding deterrent activity test
Type: functional

First: COc1ccc2c(c1)OC(C)(C)C1=C2OC(=O)C1
Second: COc1cc2c(cc1OC)C1=C(CC(=O)O1)C(C)(C)O2
The FDI of the first is lower: -6.7 for the first, 59 for the second.

Compared with `COc1ccc2c(c1)OC(C)(C)C(CC(=O)O)=C2`, `COc1cc2c(cc1OC)OC(C)(C)C(CC(=O)O)=C2` is higher in FDI: -6.2 for the first, 40.5 for the second.

System: Leptinotarsa decemlineata
Assay: Antifeeding activity against Leptinotarsa decemlineata larvaes in compound treated wheat wafer disk assessed as total coefficient of deterrence by feeding deterrent activity test
Type: functional

Compared with `COc1ccc2c(c1)OC(C)(C)C1=C2OC(=O)C1`, `COc1cc2c(cc1OC)C1=C(CC(=O)O1)C(C)(C)O2` is higher in FDI: 76.7 for the first, 95.2 for the second.

Compared with `COc1ccc2c(c1)OC(C)(C)C(CC(=O)O)=C2`, `COc1cc2c(cc1OC)OC(C)(C)C(CC(=O)O)=C2` is lower in FDI: 98.8 for the first, 96.3 for the second.

System: Tribolium confusum
Assay: Antifeeding activity against Tribolium confusum (confused flour beetle) adults in compound treated wheat wafer disk assessed as relative coefficient of deterrence by feeding deterrent activity test
Type: functional

Compared with `COc1ccc2c(c1)OC(C)(C)C1=C2OC(=O)C1`, `COc1cc2c(cc1OC)C1=C(CC(=O)O1)C(C)(C)O2` is lower in FDI: 94.4 for the first, 91.6 for the second.

Going from `COc1ccc2c(c1)OC(C)(C)C(CC(=O)O)=C2` to `COc1cc2c(cc1OC)OC(C)(C)C(CC(=O)O)=C2`, the FDI falls from 95.7 to 88.9.

System: Leptinotarsa decemlineata
Assay: Antifeeding activity against Leptinotarsa decemlineata larvaes in compound treated wheat wafer disk assessed as absolute coefficient of deterrence by feeding deterrent activity test
Type: functional

First: COc1ccc2c(c1)OC(C)(C)C1=C2OC(=O)C1
Second: COc1cc2c(cc1OC)C1=C(CC(=O)O1)C(C)(C)O2
The FDI of the first is lower: 21.7 for the first, 32.7 for the second.

First: COc1ccc2c(c1)OC(C)(C)C(CC(=O)O)=C2
Second: COc1cc2c(cc1OC)OC(C)(C)C(CC(=O)O)=C2
The FDI of the first is higher: 35.2 for the first, 17.2 for the second.

System: Tribolium confusum
Assay: Antifeeding activity against Tribolium confusum (confused flour beetle) adults in compound treated wheat wafer disk assessed as total coefficient of deterrence by feeding deterrent activity test
Type: functional

First: COc1ccc2c(c1)OC(C)(C)C1=C2OC(=O)C1
Second: COc1cc2c(cc1OC)C1=C(CC(=O)O1)C(C)(C)O2
The FDI of the first is higher: 114.1 for the first, 105.8 for the second.

Going from `COc1ccc2c(c1)OC(C)(C)C(CC(=O)O)=C2` to `COc1cc2c(cc1OC)OC(C)(C)C(CC(=O)O)=C2`, the FDI rises from 97.5 to 103.9.

System: Tribolium confusum
Assay: Antifeeding activity against Tribolium confusum (confused flour beetle) adults in compound treated wheat wafer disk assessed as absolute coefficient of deterrence by feeding deterrent activity test
Type: functional

Compared with `COc1ccc2c(c1)OC(C)(C)C1=C2OC(=O)C1`, `COc1cc2c(cc1OC)C1=C(CC(=O)O1)C(C)(C)O2` is lower in FDI: 19.7 for the first, 14.2 for the second.

Going from `COc1ccc2c(c1)OC(C)(C)C(CC(=O)O)=C2` to `COc1cc2c(cc1OC)OC(C)(C)C(CC(=O)O)=C2`, the FDI rises from 1.8 to 15.

System: Tribolium confusum
Assay: Antifeeding activity against Tribolium confusum (confused flour beetle) larvaes in compound treated wheat wafer disk assessed as total coefficient of deterrence by feeding deterrent activity test
Type: functional

Compared with `COc1ccc2c(c1)OC(C)(C)C1=C2OC(=O)C1`, `COc1cc2c(cc1OC)C1=C(CC(=O)O1)C(C)(C)O2` is higher in FDI: 50.6 for the first, 149.7 for the second.

Going from `COc1ccc2c(c1)OC(C)(C)C(CC(=O)O)=C2` to `COc1cc2c(cc1OC)OC(C)(C)C(CC(=O)O)=C2`, the FDI rises from 80.2 to 113.6.

System: Aphididae
Assay: Antifeeding activity against Aphididae (aphids) in compound treated chinese cabbage leaves assessed as settled aphids measured up to 24 hr
Type: functional, organism-based

In the case of `COc1ccc2c(c1)OC(C)(C)C1=C2OC(=O)C1`, the Activity is reported as “Active”.
`COc1cc2c(cc1OC)C1=C(CC(=O)O1)C(C)(C)O2` was tested, and the Activity was “inactive”.
With `COc1ccc2c(c1)OC(C)(C)C(CC(=O)O)=C2` the Activity was “inactive”.
With `COc1cc2c(cc1OC)OC(C)(C)C(CC(=O)O)=C2` the Activity was “inactive”.

System: Leptinotarsa decemlineata
Assay: Antifeeding activity against Leptinotarsa decemlineata adults in compound treated wheat wafer disk assessed as absolute coefficient of deterrence by feeding deterrent activity test
Type: functional

Compared with `COc1ccc2c(c1)OC(C)(C)C1=C2OC(=O)C1`, `COc1cc2c(cc1OC)C1=C(CC(=O)O1)C(C)(C)O2` is lower in FDI: 27.6 for the first, 19.7 for the second.

Compared with `COc1ccc2c(c1)OC(C)(C)C(CC(=O)O)=C2`, `COc1cc2c(cc1OC)OC(C)(C)C(CC(=O)O)=C2` is higher in FDI: 23.2 for the first, 34.4 for the second.

System: Sitophilus granarius
Assay: Antifeeding activity against Sitophilus granarius (granary weevil) adults in compound treated wheat wafer disk assessed as absolute coefficient of deterrence by feeding deterrent activity test
Type: functional

Compared with `COc1ccc2c(c1)OC(C)(C)C1=C2OC(=O)C1`, `COc1cc2c(cc1OC)C1=C(CC(=O)O1)C(C)(C)O2` is lower in FDI: 19.7 for the first, 14.2 for the second.

Compared with `COc1ccc2c(c1)OC(C)(C)C(CC(=O)O)=C2`, `COc1cc2c(cc1OC)OC(C)(C)C(CC(=O)O)=C2` is higher in FDI: 1.8 for the first, 15 for the second.

System: Leptinotarsa decemlineata
Assay: Antifeeding activity against Leptinotarsa decemlineata adults in compound treated wheat wafer disk assessed as relative coefficient of deterrence by feeding deterrent activity test
Type: functional

Compared with `COc1ccc2c(c1)OC(C)(C)C1=C2OC(=O)C1`, `COc1cc2c(cc1OC)C1=C(CC(=O)O1)C(C)(C)O2` is lower in FDI: 49.2 for the first, 29.9 for the second.

Compared with `COc1ccc2c(c1)OC(C)(C)C(CC(=O)O)=C2`, `COc1cc2c(cc1OC)OC(C)(C)C(CC(=O)O)=C2` is lower in FDI: 70.9 for the first, 63.7 for the second.

System: Leptinotarsa decemlineata
Assay: Antifeeding activity against Leptinotarsa decemlineata adults in compound treated wheat wafer disk assessed as total coefficient of deterrence by feeding deterrent activity test
Type: functional

First: COc1ccc2c(c1)OC(C)(C)C1=C2OC(=O)C1
Second: COc1cc2c(cc1OC)C1=C(CC(=O)O1)C(C)(C)O2
The FDI of the first is higher: 76.8 for the first, 49.6 for the second.

Compared with `COc1ccc2c(c1)OC(C)(C)C(CC(=O)O)=C2`, `COc1cc2c(cc1OC)OC(C)(C)C(CC(=O)O)=C2` is higher in FDI: 94.1 for the first, 98.1 for the second.
